Values joined by “and” are separate entries in the source; they are usually repeats but may differ in a detail not shown here. Equal values may be shown once. Where a name gives a salt, the structure may show the parent alone.
How the values were obtained:
activated human C1 = activated human C1 (Homo sapiens, UniProt P09871); assay: Test Code 026 (C1 inhibitor); assay type: biochemical; settings: twofold serial dilutions; higher well number indicates higher activity
Procedure: (§1) An active inhibitor protects C2 from C1 and C4; (ii) Cap 50 Test--Here, appropriate amounts of the test compound are added to a pool of guinea pig serum in vitro, after which the undiluted serum capillary tube assay referred to above is run. The concentration of compound inhibiting 50% is reported; and (iii) Guinea Pig Intraperitoneal Test (GPIP)--Guinea pigs weighing about 300 g. are dosed intraperitoneally (i.p.) with 200 mg./kg. of the test compound dissolved in saline and adjusted to pH 7-8. Approximately 0.4 ml. blood samples, taken by orbital sinus puncture 30 minutes and one hour after injections, are collected directly into centrifuge tubes; 5 ml. blood samples, taken by decapitation 2 hours after injection are collected directly into beakers. The samples are allowed to clot, centrifuged, and the resultant sera are assayed for complement activity using the capillary complement assay. Percent inhibition are calculated by comparison with simultaneous controls.

[1] = test system: complement activity of sera; assay: Guinea Pig Intraperitoneal Test (GPIP); assay type: in vivo; settings: 200 mg./kg. i.p.
Procedure: as §1, with “[…],” for “taken by orbital sinus puncture 30 minutes and one hour after injections,”, “taken by decapitation 2 hours after injection are collected directly into” left out

[2] = test system: total hemolytic complement activity; settings: in vitro and in vivo; judged by reduction in total hemolytic complement activity; cited from earlier work

Chain of activated human C1 (P09871 16-437 limits assumed): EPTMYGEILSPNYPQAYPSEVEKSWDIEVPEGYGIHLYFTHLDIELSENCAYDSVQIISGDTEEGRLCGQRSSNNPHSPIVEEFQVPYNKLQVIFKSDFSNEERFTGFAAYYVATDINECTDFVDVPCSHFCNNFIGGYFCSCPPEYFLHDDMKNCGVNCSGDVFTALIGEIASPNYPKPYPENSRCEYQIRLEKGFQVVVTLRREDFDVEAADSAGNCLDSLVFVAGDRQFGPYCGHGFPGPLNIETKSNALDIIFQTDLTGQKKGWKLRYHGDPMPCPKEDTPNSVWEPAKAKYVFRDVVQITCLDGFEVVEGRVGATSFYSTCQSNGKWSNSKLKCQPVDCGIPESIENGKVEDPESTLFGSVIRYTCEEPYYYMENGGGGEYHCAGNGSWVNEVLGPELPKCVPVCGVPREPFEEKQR
Chain of activated human C1 (P09871 438-688 limits assumed): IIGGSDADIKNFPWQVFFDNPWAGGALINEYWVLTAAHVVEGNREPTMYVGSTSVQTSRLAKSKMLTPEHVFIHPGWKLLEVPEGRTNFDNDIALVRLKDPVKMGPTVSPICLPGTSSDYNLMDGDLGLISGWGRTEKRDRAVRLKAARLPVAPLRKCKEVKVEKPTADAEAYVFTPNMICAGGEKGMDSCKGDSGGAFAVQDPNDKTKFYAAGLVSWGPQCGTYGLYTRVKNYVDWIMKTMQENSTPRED
Chain of activated human C1 (P00736 18-463 partner limits assumed): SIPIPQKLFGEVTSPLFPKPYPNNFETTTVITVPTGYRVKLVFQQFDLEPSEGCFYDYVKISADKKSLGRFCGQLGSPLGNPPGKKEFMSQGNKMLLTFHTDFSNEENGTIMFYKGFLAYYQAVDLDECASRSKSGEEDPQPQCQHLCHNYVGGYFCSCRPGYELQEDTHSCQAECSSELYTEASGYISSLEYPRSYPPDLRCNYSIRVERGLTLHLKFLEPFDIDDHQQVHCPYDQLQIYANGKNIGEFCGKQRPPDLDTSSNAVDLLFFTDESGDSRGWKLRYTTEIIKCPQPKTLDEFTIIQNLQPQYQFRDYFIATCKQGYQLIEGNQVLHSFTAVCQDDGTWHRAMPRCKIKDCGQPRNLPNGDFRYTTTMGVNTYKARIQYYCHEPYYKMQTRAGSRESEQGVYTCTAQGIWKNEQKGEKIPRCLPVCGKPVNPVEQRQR
Chain of activated human C1 (P00736 464-705 partner limits assumed): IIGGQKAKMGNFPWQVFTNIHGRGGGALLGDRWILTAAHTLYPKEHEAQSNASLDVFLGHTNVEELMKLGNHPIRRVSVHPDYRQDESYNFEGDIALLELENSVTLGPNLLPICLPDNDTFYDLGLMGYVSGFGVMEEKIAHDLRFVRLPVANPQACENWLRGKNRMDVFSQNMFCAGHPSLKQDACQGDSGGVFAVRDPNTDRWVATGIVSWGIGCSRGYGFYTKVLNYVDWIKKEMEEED

Row | Molecule | In vitro Activity 026 (activity in wells, serial dilution assay) (activated human C1) | In vivo Activity (Guinea Pig) Intraperitoneal % Inhibition ([1]; Time (hours) 4) [%] | In vivo Activity (Guinea Pig) Intraperitoneal % Inhibition ([1]; Time (hours) 6) | In vivo Activity (Guinea Pig) Intraperitoneal % Inhibition ([1]; Time (hours) 24) [%] | anticomplementary activity on human serum [2]
1 | C[C@@H]1O[C@@H](OC[C@H]2O[C@@H](Oc3c(-c4ccc(OS(=O)(=O)O)c(OS(=O)(=O)O)c4)oc4cc(OCCOS(=O)(=O)O)cc(O)c4c3=O)[C@H](OS(=O)(=O)O)[C@@H](OS(=O)(=O)O)[C@@H]2OS(=O)(=O)O)[C@H](OS(=O)(=O)O)[C@H](OS(=O)(=O)O)[C@H]1OS(=O)(=O)O [7-(2-hydroxyethyl)rutin, nona(H-sulfate)sodium salt] | 9-12 wells | 86 | 71% | 35 | 
2 | C[C@@H]1O[C@@H](OC[C@H]2O[C@@H](Oc3c(-c4ccc(OS(=O)(=O)O)c(OS(=O)(=O)O)c4)oc4cc(OCCOS(=O)(=O)O)cc(OS(=O)(=O)O)c4c3=O)[C@H](OS(=O)(=O)O)[C@@H](OS(=O)(=O)O)[C@@H]2OS(=O)(=O)O)[C@H](OS(=O)(=O)O)[C@H](OS(=O)(=O)O)[C@H]1OS(=O)(=O)O [7-(2-hydroxyethyl)rutin, deca(H-sulfate)sodium salt] | 6-12 wells | 88 | 71% | 20 | 
3 | C[C@@H]1O[C@@H](OC[C@H]2O[C@@H](Oc3c(-c4ccc(OCCOS(=O)(=O)O)c(OCCOS(=O)(=O)O)c4)oc4cc(OCCOS(=O)(=O)O)cc(OS(=O)(=O)O)c4c3=O)[C@H](OS(=O)(=O)O)[C@@H](OS(=O)(=O)O)[C@@H]2OS(=O)(=O)O)[C@H](OS(=O)(=O)O)[C@H](OS(=O)(=O)O)[C@H]1OS(=O)(=O)O [3',4',7-Tris(2-hydroxyethyl)rutin, deca(H-sulfate)sodium salt] | 7-10 wells |  | 48% and 82% |  | 
4 | pentosanpolysulfoester |  |  |  |  | has an anticomplementary activity on human serum, both in vitro and in vivo

Source: US4393055A, “Hydroxyalkyl ether derivatives of rutin poly(H-)sulfate and method of use” (American Cyanamid Company, priority 1982, dated 1983)
